Experimental data published in patent US7374875B2, “Peptides having affinity for the gp120 viral protein and use thereof” (priority 2001, dated 2008).

Tested on: PHA-P-activated PBMCs
Experiment: Toxicity test, viability of PHA-P-activated PBMCs
Assay type: cell-based, human
Conditions: at the doses tested
Protocol: The PBMCs are separated from the other represented elements of the blood by ficoll (MSL 2000, Eurobio) gradient centrifiguation: 30 ml of blood, from a healthy donor, diluted by a third are deposited onto a 20 ml ficoll cushion. After centrifugation for 20 min at 850 g, the ring of PBMCs is removed and then washed twice with RPMI 1640, after centrifugation at 750 g for 10 min and at 400 g for 5 min. The PBMCs are then activated for 48 h with 1 μg/ml of phytohaemagglutinin-P (PHA-P; Difco Laboratories). The PBMCs are cultured at +37° C., in an atmosphere saturated with humidity, under 5% CO2. At the end of the 48 hours of mitogenic activation, they are cultured in medium B. Throughout the culturing, the culture supernatants are sampled, and the culture media are renewed every three or four days. At each renewal of the culture media, the cell viability is evaluated by microscopic observation.
In all the experiments, the effects of the new molecules were compared to those of AZT. […] CD4 mimetic toxicity tests were also carried out on the same cells.

## Cc1cn([C@H]2C[C@H](N=[N+]=[N-])[C@@H](CO)O2)c(=O)[nH]c1=O [AZT]
  viability of the PHA-P-activated PBMCs (in words): none of the compounds, AZT, SAH-CD4 or anti-CD4 mimetics, decreased the viability
